Source: patent US6653334B1, “Benzoxazole compound and pharmaceutical composition containing the same” (Kowa Co., Ltd., priority 2002, dated 2003)

Columns and labels:
Assay type in all cases: cell-based
[1] = molecular target: T1, hPPARγ (Homo sapiens, UniProt P37231); experiment: PPAR transfection (luciferase reporter) assay in COS cells, hPPARγ; conditions: agonist activity, transiently transfected COS cells, 16 hours incubation; read-out: hPPAR; EC50 γ
T1 construct: expressed in transfected cells; host or cells: COS cells (Cercopithecus aethiops kidney)
T1 sequence (P37231 1-505): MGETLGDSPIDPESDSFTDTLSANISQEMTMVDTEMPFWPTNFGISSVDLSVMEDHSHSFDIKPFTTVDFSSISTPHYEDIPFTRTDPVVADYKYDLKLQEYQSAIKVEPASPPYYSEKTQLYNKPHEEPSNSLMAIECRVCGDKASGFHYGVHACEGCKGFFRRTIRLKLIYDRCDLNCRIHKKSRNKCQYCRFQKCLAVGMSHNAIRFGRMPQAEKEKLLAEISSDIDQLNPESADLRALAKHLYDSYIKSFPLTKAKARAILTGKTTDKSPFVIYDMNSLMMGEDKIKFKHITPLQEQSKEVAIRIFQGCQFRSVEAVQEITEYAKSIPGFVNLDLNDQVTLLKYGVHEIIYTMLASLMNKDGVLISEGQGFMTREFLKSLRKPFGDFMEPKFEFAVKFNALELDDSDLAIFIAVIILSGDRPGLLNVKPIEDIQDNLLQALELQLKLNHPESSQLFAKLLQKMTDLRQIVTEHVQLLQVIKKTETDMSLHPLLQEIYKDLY

[2] = molecular target: T2, hPPARα (Homo sapiens, UniProt Q07869); experiment: PPAR transfection (luciferase reporter) assay in COS cells, hPPARα; conditions: agonist activity, transiently transfected COS cells, 16 hours incubation; read-out: hPPAR; EC50 α
T2 construct: expressed in transfected cells; host or cells: COS cells (Cercopithecus aethiops kidney)
T2 sequence (Q07869 1-468): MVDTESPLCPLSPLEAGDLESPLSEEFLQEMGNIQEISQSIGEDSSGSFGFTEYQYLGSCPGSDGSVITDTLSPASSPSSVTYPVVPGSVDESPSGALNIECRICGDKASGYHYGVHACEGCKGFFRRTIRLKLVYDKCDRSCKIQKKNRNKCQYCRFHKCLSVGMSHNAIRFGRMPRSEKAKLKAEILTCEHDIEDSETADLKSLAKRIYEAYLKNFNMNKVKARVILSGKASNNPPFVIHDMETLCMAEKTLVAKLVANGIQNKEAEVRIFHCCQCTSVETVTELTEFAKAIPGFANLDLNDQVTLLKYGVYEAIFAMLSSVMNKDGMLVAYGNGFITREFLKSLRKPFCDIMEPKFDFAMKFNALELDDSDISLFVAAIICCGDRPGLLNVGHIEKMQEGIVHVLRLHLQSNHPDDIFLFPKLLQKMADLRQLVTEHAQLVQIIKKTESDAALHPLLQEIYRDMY

[3] = molecular target: T3, hPPARδ (Homo sapiens, UniProt Q03181); experiment: PPAR transfection (luciferase reporter) assay in COS cells, hPPARδ; conditions: agonist activity, transiently transfected COS cells, 16 hours incubation; read-out: hPPAR; EC50 δ
T3 construct: expressed in transfected cells; host or cells: COS cells (Cercopithecus aethiops kidney)
T3 sequence (Q03181 1-441): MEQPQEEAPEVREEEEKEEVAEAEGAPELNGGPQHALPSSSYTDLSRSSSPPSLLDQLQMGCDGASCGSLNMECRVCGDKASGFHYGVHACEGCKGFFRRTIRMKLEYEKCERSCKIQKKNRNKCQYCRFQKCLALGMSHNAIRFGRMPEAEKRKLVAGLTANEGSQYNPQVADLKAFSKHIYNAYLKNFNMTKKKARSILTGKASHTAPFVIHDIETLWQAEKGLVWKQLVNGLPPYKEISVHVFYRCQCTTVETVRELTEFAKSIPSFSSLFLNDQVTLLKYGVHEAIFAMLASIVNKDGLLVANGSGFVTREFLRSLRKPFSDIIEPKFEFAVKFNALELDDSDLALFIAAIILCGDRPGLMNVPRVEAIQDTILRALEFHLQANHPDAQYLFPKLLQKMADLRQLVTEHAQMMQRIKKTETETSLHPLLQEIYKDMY

Row | EC50 [1] | EC50 [2] | EC50 [3] | Structure (SMILES)
1 | 0.2 µM | 0.01 µM | > 10 µM | CCCCCCCCN(Cc1cccc(OC(C)(C)C(=O)O)c1)c1nc2ccccc2o1 [Example 6, 2-[3-[[N-(Benzoxazol-2-yl)-N-n-octyl]aminomethyl]phenoxy]-2-methylpropionic Acid]
2 | 0.1 µM | 0.003 µM | 0.5 µM | CC(C)(Oc1ccc(CN(Cc2cccc3ccccc23)c2nc3ccccc3o2)cc1)C(=O)O [Example 12, 2-[4-[[N-(Benzoxazol-2-yl)-N-(naphth-1-ylmethyl)]aminomethyl]phenoxy]-2-methylpropionic Acid]
3 | > 10 µM | 0.1 µM | > 10 µM | CC(C)(Oc1ccc(CN(Cc2ccccc2[N+](=O)[O-])c2nc3ccccc3o2)cc1)C(=O)O [Example 29, 2-[4-[[N-(Benzoxazol-2-yl)-N-(2-nitrobenzyl)]aminomethyl]phenoxy]-2-methylpropionic Acid]
4 | 0.2 µM | 0.01 µM | 1.8 µM | CN(C)c1ccc(CN(Cc2cccc(OC(C)(C)C(=O)O)c2)c2nc3ccccc3o2)cc1 [Example 41, 2-[3-[[N-(Benzoxazol-2-yl)-N-(4-dimethylaminobenzyl)]aminomethyl]phenoxy]-2-methylpropionic Acid]
5 | 0.4 µM | 0.01 µM | 1.1 µM | CCCCCCCN(Cc1cccc(OCC(=O)O)c1)c1nc2ccccc2o1 [Example 46, 3-[[N-(Benzoxazol-2-yl)-N-n-heptyl]aminomethyl]phenoxyacetic Acid]
6 | 0.7 µM | 0.01 µM | 4.5 µM | CCCCCCCCN(Cc1cccc(OCC(=O)O)c1)c1nc2ccccc2o1 [Example 48, 3-[[N-(Benzoxazol-2-yl)-N-n-octyl]aminomethyl]phenoxyacetic Acid]
7 | 0.1 µM | 0.002 µM | 0.6 µM | CCC(Oc1cccc(CN(CCCc2ccccc2)c2nc3ccccc3o2)c1)C(=O)O (stereo not drawn) [Example 55, 2-[3-[[N-(Benzoxazol-2-yl)-N-(3-phenylpropyl)]aminomethyl]phenoxy]butyric Acid]
8 | 0.1 µM | 0.001 µM | 1 µM | CCC(Oc1cccc(CN(CCCc2ccc(Cl)cc2)c2nc3ccccc3o2)c1)C(=O)O (stereo not drawn) [Example 56, 2-[3-[[N-(Benzoxazol-2-yl)-N-(3-(4-chlorophenyl)propyl)]aminomethyl]phenoxy]butyric Acid]
9 | 0.1 µM | 0.003 µM | > 10 µM | CCCCCCCCN(Cc1cccc(OC(CC)C(=O)O)c1)c1nc2ccccc2o1 (stereo not drawn) [Example 59, 2-[3-[[N-(Benzoxazol-2-yl)-N-n-octyl]aminomethyl]phenoxy]butyric Acid]
10 | 0.1 µM | 0.002 µM | 0.9 µM | CC(Oc1cccc(CN(CCCc2ccc(Cl)cc2)c2nc3ccccc3o2)c1)C(=O)O (stereo not drawn) [Example 63, 2-[3-[[N-(Benzoxazol-2-yl)-N-(3-(4-chlorophenyl)propyl)]aminomethyl]phenoxy]propionic Acid]
11 | 0.2 µM | 0.0003 µM | > 10 µM | CCCCCCCCN(Cc1cccc(OC(C)C(=O)O)c1)c1nc2ccccc2o1 (stereo not drawn) [Example 69, 2-[3-[[N-(Benzoxazol-2-yl)-N-n-octyl]aminomethyl]phenoxy]propionic Acid]
12 | 0.4 µM | 0.001 µM | > 10 µM | CC(Oc1cccc(CN(CCCc2ccccc2)c2nc3ccccc3o2)c1)C(=O)O (stereo not drawn) [Example 70, 2-[3-[[N-(Benzoxazol-2-yl)-N-(3-phenylpropyl)]aminomethyl]phenoxy]propionic Acid]
13 | > 10 µM | 0.1 µM | > 10 µM | CCCN(Cc1cccc(OC(C)C(=O)O)c1)c1nc2ccccc2o1 (stereo not drawn) [Example 74, 2-[3-[[N-(Benzoxazol-2-yl)-N-n-propyl]aminomethyl]phenoxy]propionic Acid]
14 | 0.4 µM | 0.01 µM | > 10 µM | CCN(CCCc1ccc(OC(C)(C)C(=O)O)cc1)c1nc2ccccc2o1 [Example 114, 2-[4-[3-[N-(Benzoxazol-2-yl)-N-ethyl]aminopropyl]phenoxy]-2-methylpropionic Acid]
15 | 0.1 µM | 0.004 µM | > 10 µM | CC#CCN(CCCc1cccc(OC(C)(C)C(=O)O)c1)c1nc2ccccc2o1 [Example 121, 2-[3-[3-[N-(Benzoxazol-2-yl)-N-(2-butynyl)]aminopropyl]phenoxy]-2-methylpropionic Acid]
16 | 2 µM | 0.03 µM | > 10 µM | CCCN(CCCc1ccc(OC(C)(C)C(=O)O)cc1)c1nc2ccccc2o1 [Example 132, 2-[4-[3-[N-(Benzoxazol-2-yl)-N-n-propyl]aminopropyl]phenoxy]-2-methylpropionic Acid]
17 | 0.3 µM | 0.01 µM | 3 µM | CC(C)N(CCCc1ccc(OC(C)(C)C(=O)O)cc1)c1nc2ccccc2o1 [Example 133, 2-[4-[3-[N-(Benzoxazol-2-yl)-N-isopropyl]aminopropyl]phenoxy]-2-methylpropionic Acid]
18 | > 10 µM | 0.01 µM | > 10 µM | CC(C)(Oc1cccc(CN(Cc2cccc3ccccc23)c2nc3ccccc3o2)c1)C(=O)O [Example 135, 2-[3-[[N-(Benzoxazol-2-yl)-N-(naphth-1-ylmethyl)]aminomethyl]phenoxy]-2-methylpropionic Acid]
19 | 0.5 µM | 0.01 µM | 0.3 µM | CCCCCCCCN(CCCc1ccccc1OC(C)(C)C(=O)O)c1nc2ccccc2o1 [Example 155, 2-[2-[3-[N-(Benzoxazol-2-yl)-N-n-octyl]aminopropyl]phenoxy]-2-methylpropionic Acid]
20 | 0.2 µM | 0.01 µM | > 10 µM | CC(C)(Oc1cccc(CN(Cc2ccc(Cl)cc2)c2nc3ccccc3o2)c1)C(=O)O [compound 1]
